Measurements reported in publication PMC8466962, “Isolation and Biological Characterization of Homoisoflavanoids and the Alkylamide N-p-Coumaroyltyramine from Crinum biflorum Rottb., an Amaryllidaceae Species Collected in Senegal” (Biomolecules, 2021).

Assays:
in vitro [1] = details: human, HaCaT immortalized keratinocytes
From the text: (§2) HeLa cervical cancer cells (CCL-2) and A431 (ATCC-CRL1555) human epidermoid carcinoma cells were from American Type Culture Co [...

[2] = test system: VSV-G pseudotyped HIV-1GFP; assay: VSV-G pseudotyped HIV-1GFP infectivity assay in THP-1 cells; type: cell-based; details: for Infection (mean % HIV-1GFP+ cells): 100 μM, THP-1, MOI 1, 72 h, DMSO 8.16%; for Fold decrease in infection: 50 μM, THP-1, 72 h; for Infection levels at lower concentrations: below 50 μM (12.5, 25 μM)
THP-1 cells = assay: Propidium iodide cytotoxicity in THP-1 cells; details: 72 h; for PI+ cells: 100 μM; for Dead cells: all concentrations tested (12.5-100 μM)
in vitro [3] = details: human; for IC50 at 24 h: HeLa cervical cancer cells
From the text: as §2

[4] = test system: acetylcholinesterase (AChE); assay: Anti-acetylcholinesterase assay (Ellman); type: biochemical
Method: In vitro acetylcholinesterase (AChE) activity was assessed exactly as in Ka et al. (2020) following Ellman’s colorimetric protocol with the Acetylcholinesterase Assay Kit (Abcam Inc., Boston, MA, USA). Briefly, 50 µL serial dilutions (3.9–500 µM) of compounds 1–5 were prepared in Tris-HCl pH = 7.9 buffer into designated wells of a clear 96 well-plate. A total of 5 µL of DTNB was added in each well, then 50 µL of diluted acetycholinesterase was added. The plate was incubated for 10 min in the dark. Matched concentrations of DMSO were used as a negative control. Kinetic of reaction was measured in a multiple plate reader at 410 nm in kinetic mode for 40 min at room temperature. The percentage of anti-AChE inhibition was calculated according to the following formula: 100 − [((E − S)/E) × 100], where E is the activity of the enzyme with matched concentrations of DMSO and S is the activity of the enzyme with the test sample.

α-glucosidase = α-glucosidase inhibitor assay (colorimetric kit); type: biochemical
Method: (§1) α-glucosidase and α-amylase inhibitor screening kits (colorimetric) were purchased from Biovision (Milpitas, CA, USA). In total, 10 mM of stock solution of all the tested compounds were dissolved in DMSO and serially diluted in the assay buffer of each kit. Experiments were performed according to the manufacturer’s protocol. Briefly, for the α-glucosidase assay, 10 µL of serially diluted compounds at the corresponding concentration ([…]–1 mM) were added into designated wells of clear 96 well-plates. Subsequently, 10 µL of the α-glycosidase enzyme was added to each well and volume was adjusted to 80 µL and plates were incubated for 15-min at room temperature in dark condition. Then, 20 µL of α-glycosidase substrate mixture was added in all wells and kinetic of reaction was measured at OD: 410 nm for 60 min at 2 min intervals by using a multiplate reader, Biotek instrument, Inc., Canada. Enzyme control (no inhibitor), background control (no enzyme), solvent control (DMSO) and inhibitor control (acarbose) were included in the plates. For the α-amylase assay, 50 µL of serially diluted compounds (3.25 µM to 500 µM) were added into a clear 96-well plate with 50 µL of assay buffer and 50 µL of α-amylase enzymes. The plate was incubated at room temperature in the dark for 10 min. Then 50 µL of the α-amylase substrate was added in all wells. The kinetic of reaction was measured at OD:410 nm for 26 min at intervals of 2 min by using a multiplate reader. Control α-amylase inhibitor was provided by the manufacturer, enzyme control, background control and solvent control were all included. Enzyme inhibition was calculated according to Zhang et al. (2014). In summary, ODs were plotted according to the time for each sample. Areas under the curve (AUC) were calculated, and enzyme inhibition was measured as 100−(AUCcompound/AUCenzyme) × 100 for each dilution of each compound.

in vitro [5] = details: human, A431 epidermoid carcinoma cells
From the text: as §2

HaCaT cells = assay: DCFDA assay (ROS); type: cell-based, human; details: for Production of reactive oxygen species (ROS): 10 µM, HaCaT cells
Method: N-p-coumaroyltyramine antioxidant activity was measured using 2′−7′dichlorofluorescein diacetate (DCFDA), a non-fluorescent compound permeable to the cell membrane, which can be oxidized by reactive oxygen species (ROS) giving a fluorescent compound. […] The medium was removed after 4 h and 1 mM (3%) H2O2 was added for 45 min, 1.5 and 2.0 h. Cells were washed with PBS and a fresh medium with DCFDA ([…]) was added for 45 min, then DCFDA was removed by washing in PBS and the cells were harvested. The measurement of ROS was obtained using the Sinergy H4 microplate reader (Gen5 2.07, Thermofisher, Waltham MA, USA). The fluorescence emitted from the cells treated with DCFDA was compared to the untreated cells. Trolox was used as a positive control. Values shown in the plot are mean ± SD of sixfold determinations. The mean and the standard deviation were calculated on biological triplicates using GraphPad Prism 8.0.2 software (GraphPad, San Diego, CA, USA).

[6] = test system: HaCaT, HeLa and A431 cells; assay: γ-H2AX foci immunofluorescence (DNA damage); type: cell-based, human; details: 10 μM, 24 h, all tested cell lines
Method: Cells were seeded in 35 mm dishes on micro cover glasses (BDH) and treated with the metabolite at a concentration of 10 μM. […] Cells were permeabilized with ice-cold 0.5% Triton X-100 for 5 min and then washed with PBS. Cells were then incubated with phospho-histone H2A.X (Ser139) antibody (from Cell Signaling Technologies 9542, Boston, MA, USA) for 1 h, followed by DAPI (Sigma-Aldrich) for 3 min and washed with PBS/0.05% Tween. Coverslip was mounted with Ibidi mounting medium (Ibidi GmbH, Martinsried, Germany). Images were taken with a Zeiss confocal laser-scanning microscope Axio Observer (Zeiss, Ostfilden, Germany) (scale bar, 20 μm). A 40× objective was used and image analysis was performed using Fiji ImageJ open source software project (https://imagej.net/imaging/). All the images were taken with the same setting.

[7] = test system: HaCaT immortalized keratinocytes; details: for Effect on HaCaT cell viability: incubation extended for 48 h, 0.5 to 10 μM
From the text: as §2

[8] = test system: ovarian carcinoma, melanoma and non-small lung cancer cells; set-up: method as in PMID 23659371; details: cited from earlier work
α-amylase = α-amylase inhibitor assay (colorimetric kit); type: biochemical; details: concentrations 3.9-250 μM, 26 min kinetics
Method: as §1, with “For the α-amylase assay, 50 µL of serially diluted compounds (3.25 µM to 500 µM) were added into a clear 96-well plate with 50 µL of assay buffer and 50 µL of α-amylase enzymes. The plate was incubated at room temperature in the dark for 10 min. Then 50 µL of the α-amylase substrate was added in all wells.” left out, “Control α-amylase inhibitor was provided by the manufacturer, enzyme control, background control and solvent control were all included.” left out, “In summary, ODs were plotted according to the time for each sample.” left out

[9] = test system: A431 human epidermoid carcinoma cells; details: 0.5 to 10 μM, 24 and 48 h
From the text: as §2

[10] = test system: HeLa cervical cancer cells; details: 0.5 to 10 μM, 24 and 48 h
From the text: as §2

Zika virus (ZIKV) = test system: Zika virus (ZIKV); set-up: method as in PMID 34152811; details: read-out: ZIKV replication EC50; cited from earlier work
Dengue virus (DENV) = test system: Dengue virus (DENV); set-up: method as in PMID 34152811; details: read-out: DENV replication EC50; cited from earlier work
[11] = test system: human immunodeficiency virus type 1 (HIV-1); set-up: method as in PMID 34152811; details: cited from earlier work
[12] = increasing inhibition from 15.6 μM to 250 μM

Row | SMILES | IC50 at 24 h (in vitro [1]) | Infection (mean % HIV-1GFP+ cells) [2] | PI+ cells (THP-1 cells) | IC50 at 24 h (in vitro [3]) | AChE inhibition [4, 12] | α-glucosidase inhibition (α-glucosidase; 1 mM) | IC50 at 24 h (in vitro [5]) | Fold decrease in infection [2] | Infection levels at lower concentrations [2] | Dead cells (THP-1 cells) | Production of reactive oxygen species (ROS) (HaCaT cells) | Nuclear γH2AX foci [6] | Effect on HaCaT cell viability [7] | other results
1 | COc1cc2c(c(OC)c1OC)C(=O)C(O)(Cc1ccc(O)cc1)CO2 (centres unmarked) [Compound 2, 3-hydroxy-5,6,7-trimethoxy-3-(4-hydroxybenzyl)chroman-4-one] | > 10 µM | 4.03% | 4.15% | 4 µM | up to 20% | 50% | > 10 µM |  |  |  |  |  |  | 
2 | COc1ccc(CC2(O)COc3cc(OC)c(OC)c(OC)c3C2=O)cc1 (centres unmarked) [Compound 3, 3-hydroxy-5,6,7-trimethoxy-3-(4-methoxybenzyl)chroman-4-one] | > 10 µM | 2.51% |  | 4.5 µM |  | 50% | 4 µM | 2.0 fold | decreased infection levels | 30–40% | did not increase | remarkable increase | significant reduction | AChE enzyme activity blocked ([4]; concentrations increased from 3.9 to 500 μM): 15–30%; Antiproliferative activity [8]: submicromolar concentration
3 | COc1cc2c(c(OC)c1OC)C(=O)C(Cc1ccc(O)cc1)CO2 (centres unmarked) [Compound 1, 5,6,7-trimethoxy-3-(4-hydroxybenzyl)chroman-4-one] | > 10 µM | 3.78% | 8.74% | 1 µM | up to 20% | 50% | 6 µM |  |  |  |  |  |  | viability at 48 h, 5 µM (in vitro [3]; HeLa cervical cancer cells (CCL-2)): < 20%
4 | O=C(/C=C/c1ccc(O)cc1)NCCc1ccc(O)cc1 [Compound 5, (E)-N-(4-hydroxyphenethyl)-3-(4-hydroxyphenyl)acrylamide] |  | 2.12% | 5.97% |  |  |  |  | 1.6 fold |  |  |  |  |  | IC50 (α-amylase): 40 µM; Antioxidant activity: ROS induced by H2O2 (HaCaT cells; 10 and 100 µM, 4 h pre-treatment, H2O2 1 mM, Trolox positive control): antioxidant activity comparable to Trolox; Toxicity on A431 cancer cells [9]: toxic; AChE inhibition ([4]; high concentrations): weakly inhibited; Toxicity on HeLa cancer cells [10]: toxic; Effect on HaCaT cell viability at the lower concentrations ([7]; 0.5 and 1 μM): significantly increase HaCaT cell viability; Cytotoxic activity IC50, HaCaT ([7]; MTT, 24 h of incubation): Not detected; α-glucosidase inhibition (α-glucosidase; all concentrations tested, 0.01-1000 μM): nearly completely inhibited
5 | COc1ccc(CC2COc3cc(OC)c(OC)c(OC)c3C2=O)cc1 (centres unmarked) [Compound 4, 5,6,7-trimethoxy-3-(4-methoxybenzyl)chroman-4-one] | > 10 µM | 2.76% |  | 5.5 µM | up to 20% |  | 6.5 µM | 2.4 fold | decreased infection levels | 30–40% | did not increase | remarkable increase | significant reduction | 
6 | COc1cc2c(cc1O)CN(C)C[C@H]2c1ccc(O)cc1 [cherylline] |  |  |  |  |  |  |  |  |  |  |  |  |  | EC50 (Zika virus (ZIKV)): 20.3 µM; EC50 (Dengue virus (DENV)): 8.8 µM; Effect on HIV-1 infection [11]: ineffective
